# Reference: publication PMC6450621, “Changes of drug pharmacokinetics mediated by downregulation of kidney organic cation transporters Mate1 and Oct2 in a rat model of hyperuricemia” (PLoS ONE, 2019)
# Values joined by “and” are separate entries in the source; they are usually repeats but may differ in a detail not shown here. Equal entries are not always repeated.
# Experiments:
# [1] = Pharmacokinetic study after intravenous administration in control and hyperuricemic rats (plasma, urine, kidney); conditions: for AUC0-4 / Kp, kidney / Kp at 4 h: creatinine; for Kp at 4 h / AUC(0-t) / concentration at 0.5 min / concentration at 30 min / concentration at 60 min: rat; for Kp at 4 h: kidney; for AUC(0-t) / concentration at 0.5 min / concentration at 30 min / concentration at 60 min: plasma; for concentration at 0.5 min / concentration at 30 min / concentration at 60 min: Plasma concentration;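 as to all read-outs here: Pentobarbital-anesthetized rats with cannulated bladder, jugular plasma, timed urine and saline kidney homogenate assayed by HPLC or LC-MS/MS, Kp as kidney over plasma level at 4 h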
# Method: Rats were anesthetized with pentobarbital, and the bladder was cannulated with polyethylene tubing (inside diameter 0.5 mm, outside diameter 0.8 mm). […] Blood was drawn through the jugular vein, and plasma was obtained by centrifugation at 3,000 rpm for 10 min at 4°C. Urine was collected at the designated times. […] All samples were stored at -80°C until measurement.
# If necessary, plasma and urine were diluted 10- to 100-fold and 10- to 10000-fold with saline, respectively, for high-performance liquid chromatography (HPLC) or liquid chromatography/tandem mass spectrometry (LC-MS/MS) measurement. […] Prepared samples were mixed for 1 min and centrifuged at 15,000 rpm for 5 min at 4°C. The resultant supernatant was used for LC-MS/MS analysis. The LC-MS/MS system consisted of a triple-quadrupole mass spectrometer (API 3200^TM, SCIEX, Foster City, CA) coupled with an ultrafast liquid chromatography system (LC-20AD, Shimadzu, Kyoto, Japan). […] For metformin, the mobile phase consisted of 0.1% formic acid and acetonitrile (30 : 70), and the flow rate was 0.4 mL/min.
# The plasma concentration-time data were analyzed by non-compartmental analysis. The area under the plasma concentration-time curve (AUC0-4) was obtained by application of the trapezoidal rule from time 0 to 4 h. AUC from 0 to infinity (AUCinf) was estimated by extrapolation to infinity.
# human MATE1 = biological target: T1, human MATE1 (Homo sapiens, UniProt Q96FL8); assay: Uptake of [3H]MPP+ by MATE1-expressing HEK293 cells; assay type: cell-based; conditions: for MATE1-mediated uptake of MPP+, % of Control: after subtraction of uptake by mock cells
# T1 construct: expressed in transfected cells; host or cells: HEK293 (HEK293/hMATE1; gift from Dr. Inoue, Tokyo University of Pharmacy and Life Science)
# T1 sequence (Q96FL8 1-570): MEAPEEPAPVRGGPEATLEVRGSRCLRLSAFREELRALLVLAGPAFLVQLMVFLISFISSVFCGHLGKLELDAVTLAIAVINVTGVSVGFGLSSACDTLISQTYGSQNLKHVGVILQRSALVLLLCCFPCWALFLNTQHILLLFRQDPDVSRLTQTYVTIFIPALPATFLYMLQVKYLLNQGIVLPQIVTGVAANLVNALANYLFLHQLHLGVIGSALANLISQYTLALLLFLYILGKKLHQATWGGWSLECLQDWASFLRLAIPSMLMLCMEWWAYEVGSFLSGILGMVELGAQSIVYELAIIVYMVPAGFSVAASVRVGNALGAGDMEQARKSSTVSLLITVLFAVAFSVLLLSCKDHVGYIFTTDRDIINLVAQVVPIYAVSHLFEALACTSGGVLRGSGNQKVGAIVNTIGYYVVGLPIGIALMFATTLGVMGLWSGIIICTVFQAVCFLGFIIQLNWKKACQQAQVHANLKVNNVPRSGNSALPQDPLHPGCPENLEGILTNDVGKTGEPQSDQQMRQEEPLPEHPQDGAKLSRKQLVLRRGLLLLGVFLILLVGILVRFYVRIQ
# Method: HEK293 cells transfected with human MATE1 (HEK293/hMATE1) and vector alone (mock) were gifts from Dr. Inoue (Tokyo University of Pharmacy and Life Science). […] HEK293/mock and HEK293/hMATE1 cells were plated at a density of 3.0 × 10^5 cells/well on 24-well plates and cultured for two days before an uptake assay. […] Radioactivity was measured with a liquid scintillation counter (Hitachi Aloka Medical, Tokyo, Japan). Part of the lysate was used for the determination of total protein amount with Bio-Rad protein assay dye reagent. Uptake of MPP^+ was expressed as a cell-to-medium ratio (μL/mg protein) obtained by dividing the uptake amount by the concentration of substrate in the TM. Percentages of control were calculated as the ratio of MATE1-mediated uptake of MPP^+ that obtained after subtraction of the uptake of MPP^+ by mock cells in compound treated groups to that in control group.
# [2] = Plasma concentration of oxonic acid and adenine in hyperuricemic rats; assay type: in vivo, rat; conditions: hyperuricemic rats given oral oxonic acid […] and adenine 0.1 g/kg; detection limit 100 μM for oxonic acid
# Mock cells = assay: Uptake of MPP+ by mock cells (background for MATE1-expressing cells); assay type: cell-based; conditions: 100 µM; replicates and mean
# Method: Dunnett's test was used for uptake study to compare the control group to groups treated with drugs.
# Percentages of control were calculated as the ratio of MATE1-mediated uptake of MPP^+ that obtained after subtraction of the uptake of MPP^+ by mock cells in compound treated groups to that in control group.
# [3] = Inulin clearance in control and hyperuricemic rats; assay type: in vivo, rat; conditions: Day 10, inulin 100 mg/kg iv
# Method: Urine was collected at the designated times. […] All samples were stored at -80°C until measurement.
# Inulin was measured by the anthrone method. After adding 500 mL concentrated sulfuric acid to 200 mL distilled water and cooling the solution to room temperature, 1.4 g anthrone (Sigma Aldrich) was added to it at 56°C to prepare the anthrone reagent. An aliquot of the reagent (400 μL) was added to 10 μL of plasma or urine suitably diluted with saline. The tube containing the sample was immersed in ice-cold water, shaken well and then allowed to react for 10 min at 56°C. The vial was immersed in ice-cold water to stop the reaction. The absorbance at 636 nm was measured with a spectrophotometer (UVmini1240, Shimadzu).
# [4] = control rats, individual rats and mean
# [5] = hyperuricemic rats, individual rats and mean
compound,measurement,setting,value
"CN1CC(=O)NC1=N [Creatinine, creatinine]",Plasma concentration,"[1]; control rats, 0.5 min after iv metformin 30 mg/kg or cephalexin 10 mg/kg (creatinine endogenous), individual rat",19.0 µM and 21.0 µM
same,Urinary excretion (cumulative),"[1]; control rats, 10 min, individual rats and mean",0.04 mg and 0.06 mg and 0.09 mg and 0.07 mg
same,Urinary excretion (cumulative),"[1]; control rats, 20 min, individual rats and mean",0.10 mg and 0.12 mg and 0.16 mg and 0.13 mg
same,Urinary excretion (cumulative),"[1]; control rats, 30 min, individual rats and mean",0.13 mg and 0.19 mg and 0.22 mg and 0.18 mg
same,Plasma concentration,"[1]; control rats, 30 min after iv metformin 30 mg/kg or cephalexin 10 mg/kg (creatinine endogenous), individual rat",20.1 µM and 20.4 µM
same,Urinary excretion (cumulative),"[1]; control rats, 60 min, individual rats and mean",0.18 mg and 0.30 mg and 0.32 mg and 0.27 mg
same,Plasma concentration,"[1]; control rats, 60 min after iv metformin 30 mg/kg or cephalexin 10 mg/kg (creatinine endogenous), individual rat",18.9 µM and 19.0 µM
same,Urinary excretion (cumulative),"[1]; control rats, 120 min, individual rats and mean",0.46 mg and 0.61 mg and 0.52 mg and 0.53 mg
same,Urinary excretion (cumulative),"[1]; control rats, 240 min, individual rats and mean",0.98 mg and 1.44 mg and 1.32 mg and 1.25 mg
same,AUC0-4,[1]; [4],5400 µM·min and 5463 µM·min
same,"Kp, kidney",[1]; [4],10.4 and 11.3
same,AUC0-4,[1]; [5],10502 µM·min and 8634 µM·min
same,"Kp, kidney",[1]; [5],11.7 and 17.3
same,Plasma concentration,"[1]; hyperuricemic rats, 0.5 min after iv metformin 30 mg/kg or cephalexin 10 mg/kg (creatinine endogenous), individual rat",36.4 µM and 30.6 µM
same,Urinary excretion (cumulative),"[1]; hyperuricemic rats, 10 min, individual rats and mean",0.12 mg (3×) and 0.11 mg
same,Urinary excretion (cumulative),"[1]; hyperuricemic rats, 20 min, individual rats and mean",0.19 mg (3×) and 0.20 mg
same,Urinary excretion (cumulative),"[1]; hyperuricemic rats, 30 min, individual rats and mean",0.26 mg (2×) and 0.28 mg and 0.25 mg
same,Plasma concentration,"[1]; hyperuricemic rats, 30 min after iv metformin 30 mg/kg or cephalexin 10 mg/kg (creatinine endogenous), individual rat",34.4 µM and 30.6 µM
same,Urinary excretion (cumulative),"[1]; hyperuricemic rats, 60 min, individual rats and mean",0.42 mg and 0.39 mg and 0.44 mg and 0.43 mg
same,Plasma concentration,"[1]; hyperuricemic rats, 60 min after iv metformin 30 mg/kg or cephalexin 10 mg/kg (creatinine endogenous), individual rat",34.5 µM and 36.2 µM
same,Urinary excretion (cumulative),"[1]; hyperuricemic rats, 120 min, individual rats and mean",0.69 mg and 0.58 mg and 0.73 mg and 0.76 mg
same,Urinary excretion (cumulative),"[1]; hyperuricemic rats, 240 min, individual rats and mean",1.22 mg and 0.95 mg and 1.24 mg and 1.48 mg
same,Kp at 4 h,"[1]; intravenous, control rats, individual rats and mean",8.8
same,Kp at 4 h,"[1]; intravenous, hyperuricemic rats, individual rats and mean",12
same,AUC(0-t),"[1]; intravenous, AUC0-4, creatinine, control rats, individual rats and mean",87.6 µM·h
same,AUC(0-t),"[1]; intravenous, AUC0-4, creatinine, hyperuricemic rats, individual rats and mean",171 µM·h
same,concentration at 0.5 min,"[1]; intravenous, control rats, 0.5 min after iv metformin 30 mg/kg or cephalexin 10 mg/kg (creatinine endogenous), individual rat",17.7 µM
same,concentration at 0.5 min,"[1]; intravenous, control rats, 0.5 min after iv metformin 30 mg/kg or cephalexin 10 mg/kg (creatinine endogenous), mean n=3",19.2 µM
same,concentration at 30 min,"[1]; intravenous, control rats, 30 min after iv metformin 30 mg/kg or cephalexin 10 mg/kg (creatinine endogenous), individual rat",19.5 µM
same,concentration at 30 min,"[1]; intravenous, control rats, 30 min after iv metformin 30 mg/kg or cephalexin 10 mg/kg (creatinine endogenous), mean n=3",20 µM
same,concentration at 60 min,"[1]; intravenous, control rats, 60 min after iv metformin 30 mg/kg or cephalexin 10 mg/kg (creatinine endogenous), individual rat",22.9 µM
same,concentration at 60 min,"[1]; intravenous, control rats, 60 min after iv metformin 30 mg/kg or cephalexin 10 mg/kg (creatinine endogenous), mean n=3",20.3 µM
same,concentration at 0.5 min,"[1]; intravenous, hyperuricemic rats, 0.5 min after iv metformin 30 mg/kg or cephalexin 10 mg/kg (creatinine endogenous), individual rat",24.6 µM
same,concentration at 0.5 min,"[1]; intravenous, hyperuricemic rats, 0.5 min after iv metformin 30 mg/kg or cephalexin 10 mg/kg (creatinine endogenous), mean n=3",30.5 µM
same,concentration at 30 min,"[1]; intravenous, hyperuricemic rats, 30 min after iv metformin 30 mg/kg or cephalexin 10 mg/kg (creatinine endogenous), individual rat",25.9 µM
same,concentration at 30 min,"[1]; intravenous, hyperuricemic rats, 30 min after iv metformin 30 mg/kg or cephalexin 10 mg/kg (creatinine endogenous), mean n=3",30.3 µM
same,concentration at 60 min,"[1]; intravenous, hyperuricemic rats, 60 min after iv metformin 30 mg/kg or cephalexin 10 mg/kg (creatinine endogenous), individual rat",26.5 µM
same,concentration at 60 min,"[1]; intravenous, hyperuricemic rats, 60 min after iv metformin 30 mg/kg or cephalexin 10 mg/kg (creatinine endogenous), mean n=3",32.4 µM
same,AUC(0-t),"[1]; iv, AUC0-4, control rats, iv metformin 30 mg/kg or cephalexin 10 mg/kg, creatinine endogenous, mean n=3",89.5 µM·h
same,AUC(0-t),"[1]; iv, AUC0-4, hyperuricemic rats, iv metformin 30 mg/kg or cephalexin 10 mg/kg, creatinine endogenous, mean n=3",163 µM·h
Nc1ncnc2nc[nH]c12 [adenine],"MATE1-mediated uptake of MPP+, % of Control","human MATE1; Adenine 50 µM, replicates and mean",68.3 % of Control and 107.0 % of Control
same,"MATE1-mediated uptake of MPP+, % of Control","human MATE1; Adenine 500 µM, replicates and mean",89.5 % of Control and 71.0 % of Control and 100.5 % of Control
same,"MATE1-mediated uptake of MPP+, % of Control","human MATE1; Adenine 500 µM, replicates and mean, mean",87.0 % of Control
same,Plasma concentration,[2],lower than 100 μM
CN/C(=N/CCSCc1nc[nH]c1C)NC#N [cimetidine],"MATE1-mediated uptake of MPP+, % of Control","human MATE1; 100 µM, replicates and mean, 100 µM",5.0 % of Control and 14.6 % of Control
same,"C/M ratio of MPP+ uptake, MATE1-expressing cells","human MATE1; 100 µM, replicates and mean",36.0 µL/mg protein and 18.8 µL/mg protein
same,"MATE1-mediated uptake of [3H]MPP+, percentage of control","human MATE1; positive control Mate1 inhibitor, concentration not given, HEK293/hMATE1",8.2%
same,"C/M ratio of MPP+ uptake, Mock cells",Mock cells,9.40 µL/mg protein and 10.25 µL/mg protein and 9.69 µL/mg protein
O=c1[nH]c(=O)c2[nH]c(=O)[nH]c2[nH]1 [uric acid],"MATE1-mediated uptake of [3H]MPP+, percentage of control","human MATE1; 50 μM test compound, HEK293/hMATE1 minus mock, 0.25 nM [3H]MPP+, 0.5 min, 37°C",102.0%
same,"MATE1-mediated uptake of [3H]MPP+, percentage of control","human MATE1; 500 μM test compound, HEK293/hMATE1 minus mock, 0.25 nM [3H]MPP+, 0.5 min, 37°C",100.7%
same,Inhibitory effect on MATE1-mediated MPP+ uptake,human MATE1; 50 and 500 μM of each,No inhibitory effects
same,"MATE1-mediated uptake of MPP+, % of Control","human MATE1; Uric acid 50 µM, replicates and mean",96.8 % of Control and 81.0 % of Control and 128.4 % of Control
same,"MATE1-mediated uptake of MPP+, % of Control","human MATE1; Uric acid 50 µM, replicates and mean, mean",102.0 % of Control
same,"MATE1-mediated uptake of MPP+, % of Control","human MATE1; Uric acid 500 µM, replicates and mean",87.8 % of Control and 117.9 % of Control and 96.4 % of Control
same,"MATE1-mediated uptake of MPP+, % of Control","human MATE1; Uric acid 500 µM, replicates and mean, mean",100.7 % of Control
inulin,Inulin Clearance,"[3]; control rats, individual rat",5.90 mL/min/kg and 7.51 mL/min/kg and 6.75 mL/min/kg
same,Inulin Clearance,"[3]; control rats, mean",6.72 mL/min/kg
same,Inulin Clearance,"[3]; hyperuricemic rats, individual rat",7.92 mL/min/kg and 4.99 mL/min/kg and 6.15 mL/min/kg and 4.14 mL/min/kg and 3.58 mL/min/kg
same,Inulin Clearance,"[3]; hyperuricemic rats, mean",5.36 mL/min/kg
